Test results reported in patent US9422233B2 (priority 2011, dated 2016).

What was measured:
MMP-9 = MMP-9 (Homo sapiens, UniProt P14780); assay: biochemical
human recombinant FAAH = molecular target: T1, human recombinant FAAH (Homo sapiens, UniProt O00519); assay: biochemical
T1 construct: purchased Cayman Chemical (Ann Arbor, Mich.)
T1 sequence (O00519 1-579): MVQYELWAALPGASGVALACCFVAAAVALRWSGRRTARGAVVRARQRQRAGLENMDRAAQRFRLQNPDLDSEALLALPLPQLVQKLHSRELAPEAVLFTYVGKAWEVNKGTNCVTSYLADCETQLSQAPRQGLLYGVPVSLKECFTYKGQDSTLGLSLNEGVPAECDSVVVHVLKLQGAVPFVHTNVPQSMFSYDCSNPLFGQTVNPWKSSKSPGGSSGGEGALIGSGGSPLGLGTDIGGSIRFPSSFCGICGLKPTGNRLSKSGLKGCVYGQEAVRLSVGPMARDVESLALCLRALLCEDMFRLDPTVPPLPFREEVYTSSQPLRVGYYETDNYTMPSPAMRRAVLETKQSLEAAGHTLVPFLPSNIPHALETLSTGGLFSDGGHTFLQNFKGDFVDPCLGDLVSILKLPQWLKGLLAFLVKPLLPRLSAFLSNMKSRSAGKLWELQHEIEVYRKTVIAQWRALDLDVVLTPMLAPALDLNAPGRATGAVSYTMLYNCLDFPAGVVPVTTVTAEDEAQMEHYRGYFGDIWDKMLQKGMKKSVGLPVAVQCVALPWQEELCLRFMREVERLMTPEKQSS

rabbit corneas = type: cell-based

Sequence of MMP-9 (P14780 94-707, species assumed): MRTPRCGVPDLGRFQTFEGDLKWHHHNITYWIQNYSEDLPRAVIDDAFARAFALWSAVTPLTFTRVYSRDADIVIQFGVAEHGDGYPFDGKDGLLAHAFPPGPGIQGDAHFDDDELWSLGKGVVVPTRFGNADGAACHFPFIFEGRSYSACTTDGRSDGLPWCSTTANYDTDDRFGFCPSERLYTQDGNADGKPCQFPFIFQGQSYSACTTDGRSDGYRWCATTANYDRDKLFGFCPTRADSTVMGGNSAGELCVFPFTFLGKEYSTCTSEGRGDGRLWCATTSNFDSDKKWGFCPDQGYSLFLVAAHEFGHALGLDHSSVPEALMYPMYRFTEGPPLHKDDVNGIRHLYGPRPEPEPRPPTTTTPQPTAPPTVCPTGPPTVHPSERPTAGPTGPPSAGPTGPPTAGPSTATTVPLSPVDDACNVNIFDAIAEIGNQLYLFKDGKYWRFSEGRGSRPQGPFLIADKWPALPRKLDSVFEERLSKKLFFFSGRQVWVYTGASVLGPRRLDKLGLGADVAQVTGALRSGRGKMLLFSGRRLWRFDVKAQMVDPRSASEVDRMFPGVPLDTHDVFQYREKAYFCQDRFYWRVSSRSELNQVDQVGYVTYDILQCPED

Compound	IC50 (MMP-9)	IC50 (human recombinant FAAH)	basement membrane attached post-treatment (rabbit corneas)	epithelial-stromal separation (detachment) (rabbit corneas)
CCCCCCCCCCCCCCCCOC(=O)N(O)Cc1ccc(O)c(OC)c1 [Compound 4a, Hexadecyl-N-hydroxy(4-hydroxy-3-methoxybenzyl)carbamate]	120 µM			
CCCCCCCCCCCCOC(=O)N(O)Cc1ccc(O)c(OC)c1 [Compound 4b, Dodecyl-N-hydroxy(4-hydroxy-3-methoxybenzyl)carbamate]		67 µM		
CCCCCCCCOC(=O)N(O)Cc1ccc(O)c(OC)c1 [Compound 4c, Octyl-N-hydroxy(4-hydroxy-3-methoxybenzyl)carbamate]		73 µM		
COc1cc(CN(O)C(=O)Oc2ccccc2)ccc1O [Compound 4g, Phenyl-N-hydroxy(4-hydroxy-3-methoxybenzyl)carbamate]		10 µM		
CCCCCCCC/C=C\CCCCCCCC(=O)N(O)Cc1ccc(O)c(OC)c1 [Compound 5a, (9Z)—N-Hydroxy-N-[(4-hydroxy-3-methoxyphenyl)methyl]-9-Octadecenamide]		71 µM	70%	30%
CCCCCCCCC(CCCCCC)C(=O)N(O)Cc1ccc(O)c(OC)c1 (stereo not drawn) [Compound 5c, 2-hexyl-N-hydroxy-N-(4-hydroxy-3-methoxybenzyl)decanamide]	99 µM			
CCCCCCCN(O)C(=O)Cc1ccc(O)c(OC)c1 [Compound 10a, N-heptyl-N-hydroxy-2-(4-hydroxy-3-methoxyphenyl)acetamide]		192 µM		
CCCCCCCCN(O)C(=O)Cc1ccc(O)c(OC)c1 [Compound 10b, N-octyl-N-hydroxy-2-(4-hydroxy-3-methoxyphenyl)acetamide]	68 µM		85%	15%
